The results in this text go back to patent US4190646A, “Polypeptide compositions and methods” (Sloan-Kettering Institute for Cancer Research, priority 1979, dated 1980).

One assay has as its system CR^+ B cells. As to the kind of experiment: induction in vitro of CR+ B cell differentiation from CR- B cell precursors. In kind it is cell-based, nu/nu mice. The following applies: concentrations of 0.01 ng to 10 μg/ml. As to the method: To determine the activity and characteristics of the polypeptide, determinations were carried out on healthy 5-6 weeks nu/nu mice of both sexes, the mice being bred on a BALB/c background (thymocytes expressing Thy-1.2 surface antigen) and maintained under conventional conditions. For the antisera, anti Thy-1.2 sera were prepared in Thy-1 congenic mice.
For the induction in vitro of Thy-1^+ T cells or CR^+ B cell differentiation, the induction of thymocyte differentiation from prothymocytes in vitro was performed as described by Komuro and Boyse, (Lancet, 1, 740, 1973), using the acquisition of Thy-1.2 as a marker of T cell differentiation. The induction of CR^+ B cell differentiation from CR^- B cell precursors in vitro was performed under similar conditions using as the assay criterion, the capacity of CR^+ cells to bind sheep erythrocytes coated with subagglutinating quantities of rabbit antibody and nonlytic complement. Spleen cell populations from healthy nu/nu mice fractionated on discontinuous bovine serum albumin gradients were used as the source of both precursor types (Thy-1^- and CR^-) because they have few or no Thy-1^+ cells and low numbers of CR^+ cells.

Assay [1] concerns neuromuscular transmission. As to the kind of experiment: neuromuscular transmission assessed by electromyography after injection. Conditions: mice, single injection of 10-100 μg peptide in saline intraperitoneally, 24 hours later. Format: in vivo. As to the method:
To determine the effect of this peptide on neuromuscular transmission, mice were injected with 10-100 μg peptide in N saline intraperitoreally. Twenty-four hours later, neuromuscular transmission was assessed by electromyography as described in Lancet, Vol. 12, pps. 256-259, 1975.

The nature of assay [2]: activity compared with the basic pentapeptide of Example I, in Twomey solution. Conditions: 1 μg/ml in 89% Twomey solution.

Structures are written as SMILES. Where a SMILES comes first, the peptide text is derived from it.

Regarding `CC(C)[C@H](NC(=O)[C@H](CC(=O)O)NC(=O)[C@H](CCCCN)NC(=O)[C@@H](N)CCCNC(=N)N)C(=O)N[C@@H](Cc1ccc(O)cc1)C(=O)O` [Example I, H2 N-ARG-LYS-ASP-VAL-TYR-COOH] (H-RKDVY-OH), the “induction of differentiation of CR+ B cells” value in the assay on CR^+ B cells is reported as “did not induce”. Moreover, the “neuromuscular transmission impairment by electromyography” value in assay [1] is reported as “detectable neuromuscular impairment”.

Consider `CC(C)[C@H](NC(=O)[C@H](CC(=O)O)NC(=O)[C@H](CCCCN)NC(=O)[C@@H](N)CCCNC(=N)N)C(=O)N[C@@H](Cc1ccc(O)cc1)C(N)=O` [Example IV, H2 N-ARG-LYS-ASP-VAL-TYR-CONH2] (H-RKDVY-NH2), for which, in assay [2], the “maximum activity compared with the basic pentapeptide of Example I” value is listed as 105% and the “minimum activity compared with the basic pentapeptide of Example I” value amounted to 70%.
